Data on five molecules can be found in article PMC11062922 (Nature Chemical Biology, 2023).

Molecules are shown by their SMILES.

One test has as its target ABL1 (Homo sapiens, UniProt P00519). The experiment in a line: Kinobeads competition binding: ABL1.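 Further: selectivity score: engagement of this protein divided by summed engagement of all targets.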 Conditions: target ABL1. An excerpt: Supplement 41589_2023_1459_MOESM4_ESM.xlsx, sheet "CATDS matrix" | column: ABL1
The target of the next test is T1, ACVR1B (Homo sapiens, UniProt P36896).
T1 construct: endogenous in cells
T1 sequence (P36896 24-505): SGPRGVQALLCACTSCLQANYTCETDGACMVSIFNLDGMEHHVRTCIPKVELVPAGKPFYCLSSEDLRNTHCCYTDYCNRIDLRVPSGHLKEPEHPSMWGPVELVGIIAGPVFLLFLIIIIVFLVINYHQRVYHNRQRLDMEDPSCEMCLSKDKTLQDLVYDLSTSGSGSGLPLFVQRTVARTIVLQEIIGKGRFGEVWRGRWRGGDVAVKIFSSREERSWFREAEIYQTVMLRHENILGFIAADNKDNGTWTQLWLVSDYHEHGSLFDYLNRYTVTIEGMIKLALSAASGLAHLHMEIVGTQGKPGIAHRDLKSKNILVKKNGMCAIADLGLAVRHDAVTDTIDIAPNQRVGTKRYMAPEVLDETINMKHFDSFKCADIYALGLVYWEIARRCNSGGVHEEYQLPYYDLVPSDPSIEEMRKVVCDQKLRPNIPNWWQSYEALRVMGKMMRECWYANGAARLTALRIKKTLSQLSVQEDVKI
The experiment in a line: Kinobeads competition binding: ACVR1B. The following applies: target ACVR1B.

The next test has as its target T2, AKT2 (Homo sapiens, UniProt P31751).
T2 construct: endogenous in cells
Nature of the test: Kinobeads competition binding: AKT2. Conditions: target AKT2.

The target of a further test is T3, CSNK1G3 (Homo sapiens, UniProt Q9Y6M4).
T3 construct: endogenous in cells
The experiment in a line: Kinobeads competition binding: CSNK1G3.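 Further: share of total target engagement due to this protein at one drug concentration.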 The following applies: target CSNK1G3. An excerpt: Supplement 41589_2023_1459_MOESM4_ESM.xlsx, sheet "CATDS matrix" | column: CSNK1G3

The target of another test is T4, EPHA5 (Homo sapiens, UniProt P54756).
T4 construct: endogenous in cells
Nature of the test: Kinobeads competition binding: EPHA5. The following applies: target EPHA5. An excerpt:
Supplement 41589_2023_1459_MOESM4_ESM.xlsx, sheet "CATDS matrix" | column: EPHA5

The subject of the next test is IRAK1. The experiment in a line: Kinobeads competition binding: IRAK1. Conditions: target IRAK1. The arrangement: species or system human.
The subject of another test is MAP4K1. Nature of the test: Kinobeads competition binding: MAP4K1. Conditions: target MAP4K1. The arrangement: species or system human.
A further test deals with MDN1. Nature of the test: Kinobeads competition binding: MDN1. On the set-up: species or system human. The following applies: target MDN1.
A further test has as its system MYLK3. The experiment in a line: Kinobeads competition binding: MYLK3.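 Further: share of all-target engagement taken by this protein at its own Kdapp concentration.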 The arrangement: species or system human. Conditions: target MYLK3.
The next test has as its target T5, NUAK2 (Homo sapiens, UniProt Q9H093).
T5 construct: a mixture of lysates from five cancer cell lines; endogenous in cells
T5 sequence (Q9H093 1-628): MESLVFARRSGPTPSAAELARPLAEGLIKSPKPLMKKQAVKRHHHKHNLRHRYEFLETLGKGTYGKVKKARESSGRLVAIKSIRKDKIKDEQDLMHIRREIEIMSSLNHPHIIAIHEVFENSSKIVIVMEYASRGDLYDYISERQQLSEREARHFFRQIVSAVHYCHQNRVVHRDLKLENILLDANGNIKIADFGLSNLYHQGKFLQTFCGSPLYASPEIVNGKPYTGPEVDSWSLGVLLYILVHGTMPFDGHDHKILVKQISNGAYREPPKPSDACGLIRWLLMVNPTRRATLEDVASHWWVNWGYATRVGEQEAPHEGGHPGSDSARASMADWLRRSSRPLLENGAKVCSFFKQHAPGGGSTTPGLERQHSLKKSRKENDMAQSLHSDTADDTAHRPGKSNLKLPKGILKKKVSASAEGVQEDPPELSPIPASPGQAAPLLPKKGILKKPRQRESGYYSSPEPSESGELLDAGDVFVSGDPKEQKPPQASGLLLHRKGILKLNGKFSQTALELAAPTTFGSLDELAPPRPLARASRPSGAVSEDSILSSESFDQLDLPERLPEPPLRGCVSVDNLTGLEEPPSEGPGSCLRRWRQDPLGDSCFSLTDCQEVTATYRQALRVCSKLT
Nature of the test: Kinobeads competition binding: NUAK2. The following applies: target NUAK2. An excerpt: Supplement 41589_2023_1459_MOESM4_ESM.xlsx, sheet "CATDS matrix" | column: NUAK2

The subject of the next test is OPA1. The experiment in a line: Kinobeads competition binding: OPA1.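 Further: target engagement share of this target among all targets at its Kdapp concentration.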 On the set-up: species or system human. Conditions: target OPA1.
A further test concerns the target T6, PHKG2 (Homo sapiens, UniProt P15735).
T6 construct: a mixture of lysates from five cancer cell lines; endogenous in cells
T6 sequence (P15735 1-406): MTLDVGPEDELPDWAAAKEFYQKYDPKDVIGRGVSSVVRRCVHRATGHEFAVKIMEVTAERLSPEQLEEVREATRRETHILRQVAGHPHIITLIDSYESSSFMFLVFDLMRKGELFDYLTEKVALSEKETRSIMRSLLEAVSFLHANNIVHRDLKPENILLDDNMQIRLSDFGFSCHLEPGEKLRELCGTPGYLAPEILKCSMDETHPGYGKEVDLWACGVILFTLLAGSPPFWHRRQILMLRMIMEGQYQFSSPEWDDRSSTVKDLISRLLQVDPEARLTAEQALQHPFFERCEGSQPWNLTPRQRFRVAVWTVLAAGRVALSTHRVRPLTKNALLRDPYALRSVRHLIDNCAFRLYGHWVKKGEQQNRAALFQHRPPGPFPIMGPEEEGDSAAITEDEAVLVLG
The experiment in a line: Kinobeads competition binding: PHKG2. Conditions: target PHKG2.

The test system of the next test is PIK3C2A. Nature of the test: Kinobeads competition binding: PIK3C2A.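 Further: share of all-target engagement taken by this protein at its own Kdapp concentration.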 On the set-up: species or system human. The following applies: target PIK3C2A.
The target of the next test is T7, PKN1 (Homo sapiens, UniProt Q16512).
T7 construct: a mixture of lysates from five cancer cell lines; endogenous in cells
Nature of the test: Kinobeads competition binding: PKN1.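 Further: share of total target engagement due to this protein at one drug concentration.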 The following applies: target PKN1. An excerpt: Supplement 41589_2023_1459_MOESM4_ESM.xlsx, sheet "CATDS matrix" | column: PKN1

T4 sequence (P54756 25-1037): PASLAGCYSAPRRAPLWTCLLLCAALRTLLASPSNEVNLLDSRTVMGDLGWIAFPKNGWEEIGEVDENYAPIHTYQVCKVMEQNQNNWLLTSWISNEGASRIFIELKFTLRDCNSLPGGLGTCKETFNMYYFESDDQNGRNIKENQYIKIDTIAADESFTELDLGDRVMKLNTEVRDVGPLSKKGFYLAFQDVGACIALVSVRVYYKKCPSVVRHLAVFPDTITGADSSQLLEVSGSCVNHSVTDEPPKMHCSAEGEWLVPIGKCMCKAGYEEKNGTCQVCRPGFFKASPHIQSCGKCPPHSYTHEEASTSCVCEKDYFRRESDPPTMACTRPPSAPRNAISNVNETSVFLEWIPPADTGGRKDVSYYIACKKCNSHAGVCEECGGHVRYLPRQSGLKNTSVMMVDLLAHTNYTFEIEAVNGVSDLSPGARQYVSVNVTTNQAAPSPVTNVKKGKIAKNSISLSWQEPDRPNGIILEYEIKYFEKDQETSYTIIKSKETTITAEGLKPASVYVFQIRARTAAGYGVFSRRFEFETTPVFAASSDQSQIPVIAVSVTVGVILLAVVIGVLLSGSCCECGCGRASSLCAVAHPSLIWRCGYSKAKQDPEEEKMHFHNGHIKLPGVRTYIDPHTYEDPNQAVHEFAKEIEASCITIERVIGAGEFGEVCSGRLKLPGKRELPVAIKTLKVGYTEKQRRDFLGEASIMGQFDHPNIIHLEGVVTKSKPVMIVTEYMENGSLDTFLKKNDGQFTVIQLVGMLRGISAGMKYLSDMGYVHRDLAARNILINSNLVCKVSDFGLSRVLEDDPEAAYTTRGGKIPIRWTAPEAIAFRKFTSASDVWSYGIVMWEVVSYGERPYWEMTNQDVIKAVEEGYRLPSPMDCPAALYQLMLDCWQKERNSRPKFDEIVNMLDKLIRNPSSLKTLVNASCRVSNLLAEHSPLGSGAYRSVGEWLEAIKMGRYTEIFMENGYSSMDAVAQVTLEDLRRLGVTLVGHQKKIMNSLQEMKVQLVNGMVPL
T7 sequence (Q16512 whole entry): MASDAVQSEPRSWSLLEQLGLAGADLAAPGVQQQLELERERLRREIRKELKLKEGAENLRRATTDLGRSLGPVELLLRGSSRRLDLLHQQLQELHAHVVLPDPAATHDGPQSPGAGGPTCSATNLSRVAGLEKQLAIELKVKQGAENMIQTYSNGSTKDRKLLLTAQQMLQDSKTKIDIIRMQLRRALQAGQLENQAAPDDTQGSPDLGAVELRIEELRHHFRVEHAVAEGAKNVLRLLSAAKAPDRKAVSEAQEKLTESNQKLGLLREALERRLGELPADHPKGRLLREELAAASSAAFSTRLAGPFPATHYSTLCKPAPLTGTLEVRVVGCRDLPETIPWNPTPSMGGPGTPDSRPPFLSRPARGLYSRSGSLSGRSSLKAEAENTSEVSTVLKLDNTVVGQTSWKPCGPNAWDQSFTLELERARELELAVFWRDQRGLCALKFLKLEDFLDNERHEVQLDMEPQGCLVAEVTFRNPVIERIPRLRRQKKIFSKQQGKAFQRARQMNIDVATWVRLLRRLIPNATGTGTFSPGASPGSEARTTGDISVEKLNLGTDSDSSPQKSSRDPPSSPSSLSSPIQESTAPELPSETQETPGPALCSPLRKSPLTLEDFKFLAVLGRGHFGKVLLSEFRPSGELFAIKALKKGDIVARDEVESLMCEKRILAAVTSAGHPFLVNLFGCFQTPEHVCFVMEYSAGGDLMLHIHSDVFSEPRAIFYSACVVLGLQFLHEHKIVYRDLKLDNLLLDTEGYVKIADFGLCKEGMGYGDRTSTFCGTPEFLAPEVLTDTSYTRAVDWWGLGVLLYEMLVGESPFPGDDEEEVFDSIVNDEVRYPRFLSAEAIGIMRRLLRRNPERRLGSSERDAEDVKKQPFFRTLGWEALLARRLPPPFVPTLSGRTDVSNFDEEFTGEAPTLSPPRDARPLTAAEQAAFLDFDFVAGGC
T3 sequence (Q9Y6M4 whole entry): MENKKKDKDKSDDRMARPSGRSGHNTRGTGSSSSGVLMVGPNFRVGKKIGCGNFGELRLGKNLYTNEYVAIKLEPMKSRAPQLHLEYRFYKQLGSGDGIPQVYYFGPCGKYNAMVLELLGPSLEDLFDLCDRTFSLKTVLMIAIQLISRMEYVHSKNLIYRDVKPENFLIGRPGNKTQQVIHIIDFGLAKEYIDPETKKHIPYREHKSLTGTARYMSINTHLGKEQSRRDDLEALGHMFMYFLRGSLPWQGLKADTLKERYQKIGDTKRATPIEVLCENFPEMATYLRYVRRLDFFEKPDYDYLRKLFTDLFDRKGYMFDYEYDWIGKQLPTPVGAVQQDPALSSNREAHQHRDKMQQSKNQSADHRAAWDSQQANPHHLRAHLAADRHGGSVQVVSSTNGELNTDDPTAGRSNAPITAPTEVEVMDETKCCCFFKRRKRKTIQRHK
Chain of ABL1 (P00519 28-1130 limits assumed): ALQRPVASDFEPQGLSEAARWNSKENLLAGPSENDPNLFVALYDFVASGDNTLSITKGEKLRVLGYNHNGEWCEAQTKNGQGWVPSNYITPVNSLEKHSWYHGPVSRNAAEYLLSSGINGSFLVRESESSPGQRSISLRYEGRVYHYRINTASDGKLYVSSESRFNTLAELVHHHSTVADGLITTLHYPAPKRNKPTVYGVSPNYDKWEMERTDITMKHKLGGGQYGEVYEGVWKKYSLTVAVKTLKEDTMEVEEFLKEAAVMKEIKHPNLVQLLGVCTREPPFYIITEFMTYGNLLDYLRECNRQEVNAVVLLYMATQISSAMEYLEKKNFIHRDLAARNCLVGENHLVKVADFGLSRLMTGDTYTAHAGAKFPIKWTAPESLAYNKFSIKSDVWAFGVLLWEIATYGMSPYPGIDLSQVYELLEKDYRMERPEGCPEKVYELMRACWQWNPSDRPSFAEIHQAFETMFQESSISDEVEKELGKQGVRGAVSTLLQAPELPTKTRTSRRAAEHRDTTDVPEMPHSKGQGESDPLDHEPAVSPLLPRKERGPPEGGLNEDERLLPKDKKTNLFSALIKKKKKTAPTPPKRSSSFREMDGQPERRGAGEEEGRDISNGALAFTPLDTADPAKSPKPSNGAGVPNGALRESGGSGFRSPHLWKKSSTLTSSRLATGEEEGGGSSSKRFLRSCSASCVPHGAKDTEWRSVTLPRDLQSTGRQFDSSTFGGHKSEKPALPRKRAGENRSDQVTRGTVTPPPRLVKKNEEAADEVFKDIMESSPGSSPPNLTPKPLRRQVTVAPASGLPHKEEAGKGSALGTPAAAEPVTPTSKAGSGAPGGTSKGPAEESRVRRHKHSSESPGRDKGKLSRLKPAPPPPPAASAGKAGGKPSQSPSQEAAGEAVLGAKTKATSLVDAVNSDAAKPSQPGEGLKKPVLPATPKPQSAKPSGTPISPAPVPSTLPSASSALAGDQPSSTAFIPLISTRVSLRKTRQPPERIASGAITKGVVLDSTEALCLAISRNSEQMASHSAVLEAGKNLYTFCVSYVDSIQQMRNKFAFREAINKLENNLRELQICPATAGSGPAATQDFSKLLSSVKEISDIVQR
T2 sequence (P31751 whole entry): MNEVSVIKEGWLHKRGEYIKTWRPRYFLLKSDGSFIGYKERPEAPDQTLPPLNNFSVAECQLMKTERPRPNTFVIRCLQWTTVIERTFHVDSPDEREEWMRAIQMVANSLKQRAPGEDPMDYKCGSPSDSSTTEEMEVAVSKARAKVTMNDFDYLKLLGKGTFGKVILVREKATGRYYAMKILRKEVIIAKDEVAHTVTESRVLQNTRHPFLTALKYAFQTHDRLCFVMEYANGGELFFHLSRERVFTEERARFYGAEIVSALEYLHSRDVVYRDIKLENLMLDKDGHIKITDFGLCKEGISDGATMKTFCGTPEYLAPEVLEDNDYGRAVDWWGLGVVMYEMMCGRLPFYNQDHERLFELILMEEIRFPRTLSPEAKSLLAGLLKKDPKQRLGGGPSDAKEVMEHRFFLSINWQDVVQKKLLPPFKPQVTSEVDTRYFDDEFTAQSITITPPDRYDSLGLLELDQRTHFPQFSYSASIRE

With `Nc1ncnc2[nH]c(-c3ccccc3)nc12` [AH5015_KCGS], the CATDS came to 0 on ABL1; 0 at ACVR1B; 0 at AKT2; 0 at CSNK1G3; 0.02942 at EPHA5; 0 in the test on IRAK1. In addition, the CATDS in the test on MAP4K1, with MDN1, in the test with MYLK3, on NUAK2, with OPA1 and on PHKG2 was 0 throughout. For the same molecule, the CATDS with PIK3C2A and at PKN1 was 0 each time.

Regarding `CCc1cc2c(cc1N1CCC(N3CCOCC3)CC1)C(C)(C)c1[nH]c3cc(C#N)ccc3c1C2=O` [Alectinib], the CATDS at ABL1, at ACVR1B, on AKT2, on CSNK1G3, on EPHA5 and in the test on IRAK1 was 0 each time. For the same molecule, the CATDS in the test on MAP4K1, in the test on MDN1, in the test with MYLK3, at NUAK2, in the test with OPA1 and at PHKG2 was 0 in each case. Moreover, the CATDS with PIK3C2A and on PKN1 was 0 each time.

As to `N#CC1(c2ccc(NC(=O)c3cccnc3NCc3ccncc3)cc2)CCCC1` [Apatinib], the CATDS on ABL1, on ACVR1B, on AKT2, on CSNK1G3, on EPHA5 and with IRAK1 was 0 in each case. Moreover, the CATDS in the test with MAP4K1, in the test on MDN1, with MYLK3, at NUAK2, in the test with OPA1 and at PHKG2 was 0 each time. Also, the CATDS in the test with PIK3C2A and on PKN1 was 0 throughout.

`CCN1CCN(Cc2ccc(Nc3ncc(F)c(-c4cc(F)c5nc(C)n(C(C)C)c5c4)n3)nc2)CC1` [Abemaciclib]: the CATDS stood at 0 at ABL1; 0 on ACVR1B; 0 on AKT2; 0 at CSNK1G3; 0 at EPHA5; 0.02986 with IRAK1. The CATDS with MAP4K1, in the test on MDN1, in the test on MYLK3, at NUAK2, in the test with OPA1 and on PHKG2 was 0 in each case. Also, the CATDS with PIK3C2A and on PKN1 was 0 throughout.

On to `CN(C)C/C=C/C(=O)Nc1cc2c(Nc3ccc(F)c(Cl)c3)ncnc2cc1O[C@H]1CCOC1` [Afatinib], for which the CATDS at ABL1, at CSNK1G3, on EPHA5, with MDN1, at NUAK2 and in the test with OPA1 was 0 throughout. Further, the CATDS in the test with PIK3C2A and at PKN1 was 0 each time.
